Test results as given in patent publication US9988635B2, “Modulation of growth hormone receptor expression and insulin-like growth factor expression” (Antisense Therapeutics Limited, priority 2003, dated 2018).
In the oligonucleotide strings, read from the 5' end, every base follows the letter of its sugar. An asterisk marks phosphorothioate; unmarked linkages are phosphodiester. Other units and linkages are bracketed, terminal groups are in braces. A string of capitals states the bases alone. e = 2'-O-(2-methoxyethyl) (MOE); [5mC] = 5-methylcytosine; d = 2'-deoxy (DNA)

These substances were tested on human growth hormone receptor mRNA (assay: Inhibition of human growth hormone receptor mRNA levels in MCF7 cells, quantitative real-time PCR). Details: averages from three experiments.
Format: cell-based
Parameters: concentration or dose not given beside the values
Method: The human breast carcinoma cell line MCF-7 was obtained from the American Type Culture Collection (Manassas, Va.). MCF-7 cells were routinely cultured in DMEM low glucose (Gibco/Life Technologies, Gaithersburg, Md.) supplemented with 10% fetal calf serum (Gibco/Life Technologies, Gaithersburg, Md.). Cells were routinely passaged by trypsinization and dilution when they reached 90% confluence. Cells were seeded into 96-well plates (Falcon-Primaria #3872) at a density of 7000 cells/well for use in RT-PCR analysis.
When cells reached 65-75% confluency, they were treated with oligonucleotide. For cells grown in 96-well plates, wells were washed once with 100 μL OPTI-MEM™-1 reduced-serum medium (Invitrogen Corporation, Carlsbad, Calif.) and then treated with 130 μL of OPTI-MEM™-1 containing 3.75 μg/mL LIPOFECTIN™ (Invitrogen Corporation, Carlsbad, Calif.) and the desired concentration of oligonucleotide. Cells are treated and data are obtained in triplicate. After 4-7 hours of treatment at 37° C., the medium was replaced with fresh medium. Cells were harvested 16-24 hours after oligonucleotide treatment.
Total RNA was isolated using an RNEASY 96™ kit and buffers purchased from Qiagen Inc. (Valencia, Calif.) following the manufacturer's recommended procedures. Briefly, for cells grown on 96-well plates, growth medium was removed from the cells and each well was washed with 200 μL cold PBS. 150 μL Buffer RLT was added to each well and the plate vigorously agitated for 20 seconds. 150 μL of 70% ethanol was then added to each well and the contents mixed by pipetting three times up and down. The samples were then transferred to the RNEASY 96™ well plate attached to a QIAVAC™ manifold fitted with a waste collection tray and attached to a vacuum source. Vacuum was applied for 1 minute. 500 μL of Buffer RW1 was added to each well of the RNEASY 96™ plate and incubated for 15 minutes and the vacuum was again applied for 1 minute. An additional 500 μL of Buffer RW1 was added to each well of the RNEASY 96™ plate and the vacuum was applied for 2 minutes. 1 mL of Buffer RPE was then added to each well of the RNEASY 96™ plate and the vacuum applied for a period of 90 seconds. The Buffer RPE wash was then repeated and the vacuum was applied for an additional 3 minutes. The plate was then removed from the QIAVAC™ manifold and blotted dry on paper towels. The plate was then re-attached to the QIAVAC™ manifold fitted with a collection tube rack containing 1.2 mL collection tubes. RNA was then eluted by pipetting 140 μL of RNAse free water into each well, incubating 1 minute, and then applying the vacuum for 3 minutes.
Quantitation of growth hormone receptor mRNA levels was accomplished by real-time quantitative PCR using the ABI PRISM™ 7600, 7700, or 7900 Sequence Detection System (PE-Applied Biosystems, Foster City, Calif.) according to manufacturer's instructions. This is a closed-tube, non-gel-based, fluorescence detection system which allows high-throughput quantitation of polymerase chain reaction (PCR) products in real-time. As opposed to standard PCR in which amplification products are quantitated after the PCR is completed, products in real-time quantitative PCR are quantitated as they accumulate. This is accomplished by including in the PCR reaction an oligonucleotide probe that anneals specifically between the forward and reverse PCR primers, and contains two fluorescent dyes. A reporter dye (e.g., FAM or JOE, obtained from either PE-Applied Biosystems, Foster City, Calif., Operon Technologies Inc., Alameda, Calif. or Integrated DNA Technologies Inc., Coralville, Iowa) is attached to the 5′ end of the probe and a quencher dye (e.g., TAMRA, obtained from either PE-Applied Biosystems, Foster City, Calif., Operon Technologies Inc., Alameda, Calif. or Integrated DNA Technologies Inc., Coralville, Iowa) is attached to the 3′ end of the probe. When the probe and dyes are intact, reporter dye emission is quenched by the proximity of the 3′ quencher dye. […]
In the case of “272319 (antisense eA*eT*eT*eT*eT*d[5mC]*d[5mC]*dT*dT*d[5mC]*d[5mC]*dT*dT*dG*dA*eG*eG*eA*eG*eA) [compound 272319]”, the “% INHIB of human growth hormone receptor mRNA levels” value (from here on “% INHIB”) is reported as 67%. “272320 (antisense eA*eG*eA*eT*eT*dG*dT*dG*dT*dT*d[5mC]*dA*d[5mC]*d[5mC]*dT*e[5mC]*e[5mC]*eT*e[5mC]*eT) [compound 272320]” was tested, and the “% INHIB” value was 70%. With “272321 (antisense eA*eA*e[5mC]*e[5mC]*e[5mC]*dA*dA*dG*dA*dG*dT*d[5mC]*dA*dT*d[5mC]*eA*e[5mC]*eT*eG*eT) [compound 272321]” the “% INHIB” value was 64%. In the case of “272322 (antisense e[5mC]*eT*eG*eG*e[5mC]*dT*d[5mC]*dA*dT*d[5mC]*dA*dA*dT*dA*dT*e[5mC]*eT*eA*eG*e[5mC]) [compound 272322]”, the “% INHIB” value is reported as 84%. “272323 (antisense eT*eG*eT*eG*eT*d[5mC]*dT*dG*dA*dT*dT*d[5mC]*d[5mC]*dT*d[5mC]*eA*eG*eT*e[5mC]*eT) [compound 272323]” was tested, and the “% INHIB” value was 67%. For “272324 (antisense eT*eA*eT*eG*eT*d[5mC]*dA*dT*dT*dG*dG*d[5mC]*dA*dT*dT*eG*eA*eA*eA*eT) [compound 272324]”, the “% INHIB” value was 53%. “272325 (antisense eA*eA*eG*eG*e[5mC]*dA*dT*dA*dA*dG*dA*dG*dA*dT*d[5mC]*eT*eG*e[5mC]*eT*eT) [compound 272325]” was tested, and the “% INHIB” value was 66%. With “272326 (antisense eA*e[5mC]*eT*e[5mC]*eA*dG*d[5mC]*dT*d[5mC]*d[5mC]*dT*dT*d[5mC]*dA*dG*eT*eA*eG*eG*eA) [compound 272326]” the “% INHIB” value was 77%. In the case of “272327 (antisense eG*eG*eA*e[5mC]*eA*dT*d[5mC]*d[5mC]*d[5mC]*dT*dG*d[5mC]*d[5mC]*dT*dT*eA*eT*eT*e[5mC]*eT) [compound 272327]”, the “% INHIB” value is reported as 60%. “272328 (antisense eG*eG*e[5mC]*eA*eT*dT*dG*dT*d[5mC]*d[5mC]*dA*dT*dA*dA*dG*eG*eA*eA*eG*eT) [compound 272328]” was tested, and the “% INHIB” value was 85%. “272329 (antisense eA*e[5mC]*eT*eT*eT*dT*dT*dG*dG*d[5mC]*dA*dT*d[5mC]*dT*dG*e[5mC]*e[5mC]*eT*e[5mC]*eA) [compound 272329]” was tested, and the “% INHIB” value was 63%. “272330 (antisense eG*eA*eT*eG*e[5mC]*dA*d[5mC]*dT*dT*dT*dT*dT*dG*dG*d[5mC]*eA*eT*e[5mC]*eT*eG) [compound 272330]” was tested, and the “% INHIB” value was 47%. With “272331 (antisense e[5mC]*eA*eG*eT*e[5mC]*dG*d[5mC]*dA*dT*dT*dG*dA*dG*dT*dA*eT*eG*eA*eG*eG) [compound 272331]” the “% INHIB” value was 67%. With “272332 (antisense e[5mC]*eT*e[5mC]*eT*eT*dT*dG*dT*d[5mC]*dA*dG*dG*d[5mC]*dA*dA*eG*eG*eG*e[5mC]*eA) [compound 272332]” the “% INHIB” value was 75%. “272333 (antisense eG*eT*eG*e[5mC]*eT*d[5mC]*dA*d[5mC]*dA*dT*dA*dG*d[5mC]*d[5mC]*dA*e[5mC]*eA*eT*eG*eA) [compound 272333]” was tested, and the “% INHIB” value was 72%. With “272334 (antisense eA*eA*eG*eA*eA*dA*dG*dG*d[5mC]*dT*dA*dA*dG*dG*d[5mC]*eA*eT*eG*eA*eT) [compound 272334]” the “% INHIB” value was 61%. In the case of “272335 (antisense eA*eA*eA*eT*eA*d[5mC]*dG*dT*dA*dG*d[5mC]*dT*d[5mC]*dT*dT*eG*eG*eG*eA*eA) [compound 272335]”, the “% INHIB” value is reported as 47%. With “272336 (antisense e[5mC]*eA*eA*eT*e[5mC]*dA*d[5mC]*dT*dG*d[5mC]*dT*dA*d[5mC]*dT*dA*eA*eA*e[5mC]*eA*eG) [compound 272336]” the “% INHIB” value was 69%. For “272337 (antisense eA*eA*eA*e[5mC]*eA*dT*dA*dG*d[5mC]*d[5mC]*dA*dT*dT*d[5mC]*dA*eA*eT*eG*e[5mC]*eT) [compound 272337]”, the “% INHIB” value was 39%. “272339 (antisense eG*eT*eT*eT*eT*dA*d[5mC]*dA*dT*dA*dT*d[5mC]*d[5mC]*dA*dA*eA*e[5mC]*eT*eA*eT) [compound 272339]” was tested, and the “% INHIB” value was 72%. For “272340 (antisense e[5mC]*eA*eT*e[5mC]*eA*dA*d[5mC]*d[5mC]*dA*dA*dG*dA*dT*dT*dT*eG*eG*eT*eG*eA) [compound 272340]”, the “% INHIB” value was 69%. “272341 (antisense eG*eA*eG*eG*e[5mC]*dT*dA*dT*dA*dG*dA*dT*d[5mC]*dT*dT*eA*eT*e[5mC]*eT*e[5mC]) [compound 272341]” was tested, and the “% INHIB” value was 65%. “272342 (antisense eT*eA*eG*eT*eG*dA*dG*dA*dA*dA*dG*dA*dA*dA*dG*eT*eT*eT*e[5mC]*eT) [compound 272342]” was tested, and the “% INHIB” value was 45%. For “272343 (antisense eA*eA*eT*eG*e[5mC]*dT*d[5mC]*dT*d[5mC]*dA*dA*dG*dA*dA*dT*eG*eA*eT*eG*eT) [compound 272343]”, the “% INHIB” value was 48%. In the case of “272344 (antisense eA*e[5mC]*eA*e[5mC]*eT*d[5mC]*dA*dA*dT*dT*d[5mC]*dT*dA*dG*d[5mC]*eT*eT*eT*eT*e[5mC]) [compound 272344]”, the “% INHIB” value is reported as 60%. For “272345 (antisense e[5mC]*eA*eT*e[5mC]*eT*dA*dT*dT*dA*d[5mC]*dA*dA*dA*dT*dA*eA*e[5mC]*eA*eT*eG) [compound 272345]”, the “% INHIB” value was 24%. For “272346 (antisense e[5mC]*eT*e[5mC]*eT*eT*dG*dG*dA*dG*dA*dA*dA*dA*d[5mC]*d[5mC]*eA*eT*eA*eG*e[5mC]) [compound 272346]”, the “% INHIB” value was 67%. With “272347 (antisense eT*e[5mC]*eT*eA*e[5mC]*dA*d[5mC]*dT*dG*dA*dT*dG*dA*dT*dA*e[5mC]*eT*eT*eT*eA) [compound 272347]” the “% INHIB” value was 62%. For “272348 (antisense e[5mC]*eA*e[5mC]*eA*eG*d[5mC]*dT*dT*dT*dG*dA*dA*dT*dT*dG*eA*eA*eT*eT*eA) [compound 272348]”, the “% INHIB” value was 57%. “272349 (antisense eA*eG*eT*e[5mC]*eT*dT*d[5mC]*d[5mC]*dA*dA*dA*d[5mC]*dA*d[5mC]*dA*e[5mC]*eA*eG*e[5mC]*eT) [compound 272349]” was tested, and the “% INHIB” value was 68%. In the case of “272350 (antisense eA*eG*eG*e[5mC]*eT*dG*dT*dT*dG*dT*dG*dA*dA*dA*dT*eA*eG*eT*eA*eA) [compound 272350]”, the “% INHIB” value is reported as 67%. In the case of “272351 (antisense eA*eT*eA*eG*eA*dA*dA*dT*dG*dT*dT*dG*dT*d[5mC]*dA*eG*eG*e[5mC]*eT*eG) [compound 272351]”, the “% INHIB” value is reported as 57%. “272352 (antisense e[5mC]*e[5mC]*eA*eA*eA*dA*dT*dG*dA*d[5mC]*dA*dT*dT*d[5mC]*dT*eG*eA*eG*eA*e[5mC]) [compound 272352]” was tested, and the “% INHIB” value was 77%. “272353 (antisense eA*eT*eA*eA*eT*dG*dG*d[5mC]*dT*dT*dA*dT*dG*dT*dG*eG*e[5mC]*e[5mC]*eA*e[5mC]) [compound 272353]” was tested, and the “% INHIB” value was 72%. “272354 (antisense eA*eG*eT*eT*eA*dT*dG*dT*dG*dA*d[5mC]*d[5mC]*d[5mC]*dT*dG*eA*eT*eT*eG*eA) [compound 272354]” was tested, and the “% INHIB” value was 65%.
